Where a name gives a salt, the structure may show the parent alone.
## Fc1ccc(-c2cc(NCC3CCNCC3)c3sccc3n2)cc1 (as salt: hydrochloride)
  melting point: > 260 °C (dec.)

Reference: patent US6380209B1 (dated 2002)
